Results taken from paper PMC12040169 (PLOS Biology, 2025).

Assay: in vitro
Conditions: human, hela cells, % viability

NC(=O)C1CCN(Cc2cc3c(cc2[N+](=O)[O-])OCO3)CC1 [CBK261885]
viability at 28.5 h, 10 µM: 91.7%

CCn1c2ccccc2c2cc(CN3CCN(S(=O)(=O)c4ccc(NC(C)=O)cc4)CC3)ccc21 [CBK264248]
viability at 28.5 h, 10 µM: 94.1%

Cc1c(C(=O)NCCN2CCC(C)CC2)oc2c1C(O)CC(C)(C)C2 (stereo not shown) [CBK282100]
viability at 28.5 h, 10 µM: 87.1%

Cc1ccc(-c2nnc(SCC(=O)Nc3ccc(N4CCOCC4)cc3)n2C)cc1 [CBK270247]
viability at 28.5 h, 10 µM: 111%

COc1cccc(NC(=O)CN(c2ccccc2)S(=O)(=O)c2ccc(Cl)cc2)c1 [CBK265366]
viability at 28.5 h, 10 µM: 102%

Cc1nn(Cc2cccc3ccccc23)c(C)c1NC(=O)c1cccnc1 [CBK269946]
viability at 28.5 h, 10 µM: 90.6%

Cc1ccc(OC(C)C(=O)NCc2ccccc2)cc1 (stereo not shown) [CBK269016]
viability at 28.5 h, 10 µM: 101%

CN1CCC(=NNC(=O)c2ccc(CN3CCOCC3)cc2)CC1 [CBK262749]
viability at 28.5 h, 10 µM: 86.6%

CC(C)CNC(=O)C1CCN(C(=O)c2cccc(F)c2)CC1 [CBK304338]
viability at 28.5 h, 10 µM: 112%

O=C(c1ccccc1)N1C[C@@H]2CCCCN(Cc3cccnc3)[C@@H]2C1 [CBK285512]
viability at 28.5 h, 10 µM: 98.7%

COc1cc2c(cc1OC)CN(C(=O)CSc1nc3c(c(-c4cccs4)c1C#N)CN(C)CC3)CC2 [CBK267462]
viability at 28.5 h, 10 µM: 91.3%

CN(C)C(=O)Cn1cccc2cc(-c3ccc(F)cc3)nc1-2 [CBK285349]
viability at 28.5 h, 10 µM: 105%

CC(SC1CCc2ccccc2NC1=O)C(=O)O (stereo not shown) [CBK286652]
viability at 28.5 h, 10 µM: 87.1%

CS(=O)(=O)N(CC(=O)Nc1ccc(S(N)(=O)=O)cc1)Cc1ccc(Cl)cc1 [CBK267512]
viability at 28.5 h, 10 µM: 98.8%

CN(C)c1ccc(-c2cnc3[nH]c(=O)n(C4CCCC4)c3n2)cc1 [CBK064964]
viability at 28.5 h, 10 µM: 98%

COc1ccc(C(=O)N2CCC3(CCCN(CCCn4c(=O)[nH]c5ccccc54)C3)C2)cc1OC (stereo not shown) [CBK132856]
viability at 28.5 h, 10 µM: 93.1%

Cc1nc2ccc(NC(=O)Nc3cccc(-c4ccc5c(c4)COC4(CCNCC4)O5)c3)cc2o1 [CBK113206]
viability at 28.5 h, 10 µM (bulk resorufin, single well): 101%

Cc1ccc(-c2nnc(S)n2/N=C\c2ccccc2OCC(=O)O)cc1 [CBK264408]
viability at 28.5 h, 10 µM: 90.7%

CN(C)CCCNC(=O)COc1ccccc1 [CBK262189]
viability at 28.5 h, 10 µM: 88%

O=C(Nc1nc(-c2ccncc2)cs1)C1COc2ccccc2O1 (stereo not shown) [CBK287370]
viability at 28.5 h, 10 µM: 96.7%

O=C(NC[C@H]1CC[C@H](c2cc(C(=O)N3CCOCC3)c3ccccc3n2)CC1)C1CCCC1 [CBK285979]
viability at 28.5 h, 10 µM: 89.9%

Cc1nnc(CCn2cnc3cccnc3c2=O)s1 [CBK307125]
viability at 28.5 h, 10 µM: 96.7%

O=c1[nH]c(=O)c2cc(S(=O)(=O)N3CCCCC3CN3CCCCC3)ccc2[nH]1 (stereo not shown) [CBK286393]
viability at 28.5 h, 10 µM: 83.5%

Cc1ccc2[nH]c(C)c(CC(=O)N(C)CCN3CCCCC3)c2c1 [CBK282749]
viability at 28.5 h, 10 µM: 87.8%

CCC(NS(=O)(=O)c1ccc(Br)cc1)C(=O)O (stereo not shown) [CBK264472]
viability at 28.5 h, 10 µM: 97%

Cn1ncc(N2CCC(CNC(=O)COc3cccc(F)c3)C2)cc1=O (stereo not shown) [CBK307692]
viability at 28.5 h, 10 µM: 87.1%

COc1ccccc1CN1CC[C@H]2[C@@H](C1)[C@H](c1ccsc1)CN2C(=O)c1ccccc1 [CBK285617]
viability at 28.5 h, 10 µM: 96%

COCCNc1nc(-c2ccc(C(C)=O)s2)ccc1C(=O)N(C)CCN(C)C [CBK105914]
viability at 28.5 h, 10 µM: 116%

O=C(Nc1cccc([N+](=O)[O-])c1)c1ccc2nc(-c3ccccn3)c(-c3ccccn3)nc2c1 [CBK265137]
viability at 28.5 h, 10 µM: 101%

Cc1ccnc(SCc2ccc(F)cc2Cl)n1 [CBK270290]
viability at 28.5 h, 10 µM: 87.4%

Cc1cccc2c3c([nH]c12)CCN(C(=O)[C@@H]1C[C@@H]2C=C[C@H]1C2)C3 [CBK281656]
viability at 28.5 h, 10 µM: 93.6%

c1ccc(Oc2cccc(C(N3CCOCC3)N3CCOCC3)c2)cc1 [CBK261798]
viability at 28.5 h, 10 µM: 104%

CCNC(=O)N(C)c1c(CC)nc2ccc(C(=O)N3CCN(C(C)=O)CC3)cn12 [CBK146362]
viability at 28.5 h, 10 µM: 104%

CC(=O)Nc1ccc(S(=O)(=O)N2CCN(c3cc4c(cc3[N+](=O)[O-])n(C)c(=O)n4C)CC2)cc1 [CBK267338]
viability at 28.5 h, 10 µM: 91.9%

Cc1ccc(-c2ccc(N3CCCC(C(=O)O)C3)nn2)cc1C (stereo not shown) [CBK300513]
viability at 28.5 h, 10 µM: 95.8%

COc1ccc(CNc2ccc(C3c4ccsc4CCN3C(C)=O)cc2)cc1 (stereo not shown) [CBK286444]
viability at 28.5 h, 10 µM: 102%

O=C(CCNS(=O)(=O)c1ccc(Cl)cc1)Nc1ccncc1 [CBK269244]
viability at 28.5 h, 10 µM: 99.4%

Clc1ccc(COc2cc(N3CCCN(Cc4ccccc4-c4ccccc4)CC3)ncn2)cc1Cl [CBK083781T]
viability at 28.5 h, 10 µM: 98.4%

O=C(N[C@H]1CCN2C(=O)N(c3cccc4nsnc34)C(=O)[C@@H]2C1)c1cccs1 [CBK289543]
viability at 28.5 h, 10 µM: 87%

O=C(Nc1ccc2[nH]ccc2c1)c1ccc(OC(F)(F)F)cc1 [CBK159688]
viability at 28.5 h, 10 µM: 61.5%

CN(CC(=O)NCc1ccc2c(c1)OCO2)Cc1ccc(Br)s1 [CBK295185]
viability at 28.5 h, 10 µM: 80.4%

COc1ccc2c(c1)C(O)CC1(CCN(CC(O)c3ccc(-c4ccccc4)cc3)CC1)O2 (stereo not shown) [CBK286398]
viability at 28.5 h, 10 µM: 101%

O=C(O)c1ccccc1N1C(=O)C2CC=C(Cl)CC2C1=O (stereo not shown) [CBK287007]
viability at 28.5 h, 10 µM: 94.4%

CCN(CC)C(=O)CN1CCN(c2nccnc2OCc2ccc(Cl)c(Cl)c2)CC1 [CBK083081T]
viability at 28.5 h, 10 µM: 101%

CCCCOC(=O)CCn1c(=S)oc2ccccc21 [CBK019181]
viability at 28.5 h, 10 µM: 87.9%

Cc1nc(C2CCN(C(=O)c3cccnc3)CC2)c2sccn12 [CBK282233]
viability at 28.5 h, 10 µM: 106%

c1ccc(CCN2CCN(c3nccnc3OCC3COc4ccccc4O3)CC2)cc1 (stereo not shown) [CBK082794T]
viability at 28.5 h, 10 µM: 99.4%

O=C(O)c1ccc2[nH]c3c(c2c1)CCCC3 [CBK001252]
viability at 28.5 h, 10 µM: 90.9%

Cc1nc(CCNc2ccc(-c3nc(C)c(C)c(=O)[nH]3)cn2)cs1 [CBK305497]
viability at 28.5 h, 10 µM: 107%

O=C(c1ccc(-n2cccn2)nc1)N1CCN(c2ccccc2O)CC1 [CBK297794]
viability at 28.5 h, 10 µM: 83.8%

O=C(O)c1cccc(NS(=O)(=O)c2ccccc2)c1 [CBK155710]
viability at 28.5 h, 10 µM: 79.7%

O=c1[nH]c2ncc(-c3cccc4cccnc34)nc2n1Cc1cccnc1 [CBK064305]
viability at 28.5 h, 10 µM: 58.9%

O=C1C2CCCCN2C(=O)N1c1cccnc1 (stereo not shown) [CBK162359]
viability at 28.5 h, 10 µM: 114%

COc1ccc(-c2cn(-c3cccc(NC(C)=O)c3)nn2)cc1 [CBK113008]
viability at 28.5 h, 10 µM: 97.2%

O=C(Nc1c(F)cc(F)cc1OC1CCNCC1)c1ccnc2ccccc12 [CBK050277T]
viability at 28.5 h, 10 µM: 94.9%

O=C(Cc1csc2ccccc12)Nc1cnc(-c2ccc(F)cc2)c(-c2ccoc2)n1 [CBK037102]
viability at 28.5 h, 10 µM: 93.3%

CCN(CC)CC(c1ccccc1)C(O)c1ccc(OC)cc1 (stereo not shown) [CBK262074C]
viability at 28.5 h, 10 µM: 88.8%

CC(C)c1ccc(NS(=O)(=O)c2ccc(F)c(C(=O)O)c2)cc1 [CBK297940]
viability at 28.5 h, 10 µM: 104%

C=CCOc1c(Br)cc(CNc2ccc(C(=O)O)cc2)cc1OC [CBK267202]
viability at 28.5 h, 10 µM: 111%

O=S(=O)(NC1CCCCC1Sc1nnc(Nc2ccccc2)s1)c1ccccc1 (stereo not shown) [CBK266378]
viability at 28.5 h, 10 µM: 96.7%

CCCN(C)Cc1ccc(-c2cn(CC(=O)NCc3ccc(C(F)(F)F)cc3)nn2)cc1 [CBK164719]
viability at 28.5 h, 10 µM: 92.9%

O=C1CCN(Cc2ccccc2)CCN1C(=O)c1cccs1 [CBK284828]
viability at 28.5 h, 10 µM: 88.8%

CCNC(=O)N1C(CC(=O)Nc2cccc(OC)c2)C(=O)NC2CCCCC21 (stereo not shown) [CBK269848]
viability at 28.5 h, 10 µM: 90.6%

COc1ccccc1-c1cn2ccnc2c(NCc2ccccc2)n1 [CBK037372]
viability at 28.5 h, 10 µM: 92.7%

CC(C)n1c(=O)[nH]c2ccncc2c1=O [CBK015763]
viability at 28.5 h, 10 µM: 88.8%

CC1(C)Cc2nc(N3CCOCC3)ncc2C(NC(=O)C2CCC2)C1 (stereo not shown) [CBK306943]
viability at 28.5 h, 10 µM: 83.8%

Cc1ccc2nc(-c3ccc(N4C(=O)CC(N5CCN(CCOCCO)CC5)C4=O)cc3)sc2c1 (stereo not shown) [CBK265362]
viability at 28.5 h, 10 µM: 86.1%

O=C(O)CCC(=O)NCCc1ccc(Cl)cc1 [CBK287165]
viability at 28.5 h, 10 µM: 92.7%

c1ccc(-c2nc(C3CC3)n3ccccc23)cc1 [CBK149257]
viability at 28.5 h, 10 µM: 94.1%

Cc1ccn2ncc(C(=O)N3CCCCCC3c3ccco3)c2n1 (stereo not shown) [CBK304015]
viability at 28.5 h, 10 µM: 111%

O=S(=O)(c1cc(Cl)ccc1Cl)N1CCSC1 [CBK097980]
viability at 28.5 h, 10 µM: 99.4%

Nc1cc2cccnc2c(-c2ccc3c(c2)CCO3)n1 [CBK081173]
viability at 28.5 h, 10 µM: 98%

CN(C)S(=O)(=O)c1ccc(-c2nn(-c3ccccc3)cc2/C=C(\C#N)c2nc3ccccc3c(=O)[nH]2)cc1 [CBK266266]
viability at 28.5 h, 10 µM: 101%

CCCN(C(=O)CCn1c(=O)oc2cc(Cl)ccc21)C1CCNC1 (stereo not shown) [CBK304311C]
viability at 28.5 h, 10 µM: 90.5%

CCOc1ccc(C(=O)Nc2ccc(S(=O)(=O)N3CCN(C)CC3)cc2)cc1 [CBK269959]
viability at 28.5 h, 10 µM: 85.5%

OCCOc1cccc(-c2nnco2)c1 [CBK000033]
viability at 28.5 h, 10 µM: 98.6%

CCc1csc(C(=Cc2ccc(OC)cc2)C(N)=O)n1 [CBK001010]
viability at 28.5 h, 10 µM: 86.9%

COc1ccc(NC(=O)C(=O)N/N=C/c2ccc(C(=O)O)cc2)cc1 [CBK262255]
viability at 28.5 h, 10 µM: 95.5%

O=C(CSc1nnc(-c2ccccc2Br)o1)c1ccc(F)cc1 [CBK068688]
viability at 28.5 h, 10 µM: 92.2%

Clc1ccc(-c2ccc(N3CCN(CCN4CCCC4)CC3)nc2)cc1 [CBK037623]
viability at 28.5 h, 10 µM: 97.8%

Cc1nc(CN2CCCN(C(=O)c3cccc(C#N)c3)CC2)cs1 [CBK305363]
viability at 28.5 h, 10 µM: 83.6%

COCCCNC(=S)N/N=C/c1ccco1 [CBK006272]
viability at 28.5 h, 10 µM: 104%

CC(C)(C)OC(=O)N1Cc2ccccc2C[C@H]1C(=O)N1CCC(C(=O)O)CC1 [CBK286761]
viability at 28.5 h, 10 µM: 94.1%

OCc1ccccc1CN1CCOCC1 [CBK264388C]
viability at 28.5 h, 10 µM: 83.3%

Cc1c(C(=O)N(CC(=O)O)C2CC2)nnn1-c1ccc(Cl)cc1F [CBK304738]
viability at 28.5 h, 10 µM: 91.1%

O=C(CCNS(=O)(=O)c1ccc(Cl)cc1)N1CCN(Cc2ccccc2)CC1 [CBK269405]
viability at 28.5 h, 10 µM: 101%

COc1cc(OC)cc(C(=O)Nc2ncccc2OCCCC#N)c1 [CBK304899]
viability at 28.5 h, 10 µM: 88.3%

COc1ccc(F)c(CN(CC2CCNCC2)C(=O)Nc2c(F)cccc2F)c1 [CBK049804]
viability at 28.5 h, 10 µM: 110%
